The values that follow come from ChEMBL document CHEMBL5614413, “Design, synthesis and biological evaluation of amphiphilic benzopyran derivatives as potent antibacterial agents against multidrug-resistant bacteria” (Eur J Med Chem, 2024).

For this test, the system named is Staphylococcus aureus. The test is described as follows: Drug resistance, ratio of MIC for methicillin-resistant Staphylococcus aureus ATCC 43300 after 19 days exposure to MIC for methicillin-resistant Staphylococcus aureus ATCC 43300 during first exposure. It counts as functional. The conditions noted are these: time 19 day.

For `CCn1cc(C(=O)O)c(=O)c2cc(F)c(N3CCNCC3)cc21` [NORFLOXACIN], the Ratio worked out at 512.
